Results published in patent publication US12369582B2, “Pyridyloxyacetic acid compound and use of same” (SUMITOMO CHEMICAL COMPANY, LIMITED, priority 2019, dated 2025).

Test system: Phytophthora capsici
Assay: Titer plate growth inhibition test on Phytophthora capsici zoospores in potato dextrose broth
Type: cell-based
Conditions: final concentration 100 ppm; cultured at 27° C. for 3 days; absorbance at 600 nm vs non-treated section
Method: Next, test examples are shown. A non-treated in Test Example 1 means a section in which the same operation as in a treated section is performed except that Compound A is not used. After dispensing 1 μL of a dimethyl sulfoxide solution containing a predetermined concentration of Compound A into wells of a titer plate (96 wells), 150 μL of a potato dextrose broth containing zoospores of Phytophthora capsici was dispensed, and the mixture was prepared so as to have a final concentration of Compound A of 100 ppm and defined as a treated section. In addition, a non-treated section was prepared in other wells. The plate was cultured at 27° C. for 3 days to proliferate Phytophthora capsici […], and then the absorbance at 600 nm of each well of the titer plate was measured and defined as the growth degree of Phytophthora capsici. Based on the growth degree, the efficacy was calculated using “Formula 1”. Efficacy(%)=100×(X−Y)/X “Formula 1” • X: Growth degree of bacteria in non-treated section • Y: Growth degree of bacteria in treated section A test was performed according to Test Example 1 using sodium salt monohydrate of Compound A in place of Compound A. As a result, the efficacy was 90%. A test was performed according to Test Example 1 using Compound B in place of Compound A. As a result, the efficacy was 64%.

SMILES | Efficacy [%]
CCOC(=O)COc1ncccc1Oc1ccc(F)cc1Cl [Compound B, 2-{[3-(2-chloro-4-fluorophenoxy)pyridin-2-yl]oxy}acetic acid ethyl ester] | 64
O=C(O)COc1ncccc1Oc1ccc(F)cc1Cl [Compound A, 2-{[3-(2-Chloro-4-fluorophenoxy)pyridin-2-yl]oxy}acetic acid] | 100
